From publication PMC6277767, “Broad and Region-Specific Impacts of the Synthetic Cannabinoid CP 55,940 in Adolescent and Adult Female Mouse Brains” (Frontiers in Molecular Neuroscience, 2018)

System: CD1 female mouse brain lipidome
Assay: Brain-region lipid levels (HPLC/MS/MS lipidomics) 2 h after single i.p. 3 mg/kg CP 55,940 vs vehicle
Assay type: in vivo
Parameters: N-arachidonoyl phenylalanine level, Mean / N-stearoyl tryptophan level, Mean / N-stearoyl proline level, Mean / N-stearoyl leucine level, Mean / N-stearoyl phenylalanine level, Mean / N-stearoyl serine level, Mean / N-stearoyl methionine level, Mean: unit: moles per gram
Experimental: The Bloomington Institutional Animal Care and Use Committee of Indiana University reviewed and approved the animal procedures. Female mice from the CD1 strain were utilized to match our study examining THC’s effects on the brain lipidome ([Leishman et al., 2018]). Mice were given a single i.p. injection of either 3 mg/kg CP or 1:1:18 cremophor:ethanol:saline vehicle (please refer to the section “3 mg/kg CP Is Relevant for Synthetic Cannabinoid Abuse and Has Stronger Effects on the Female Mouse Brain Lipidome During Adolescence” for a justification of dose and use of female mice). Three different age groups were given injections: PND 35 and PND 50 adolescents, and adult mice (PND 113). At least eight mice in each age group received CP and at least eight received vehicle. Matching the THC study time course ([Leishman et al., 2018]), mice were sacrificed via rapid decapitation 2 h after injection. Brains were immediately removed and flash-frozen in liquid nitrogen, and then stored at -80°C until dissections were performed. Brains were dissected on an ice-cold dissection plate into the following regions: STR, HIPP, CER, THAL, CTX, HYP, MID, and STEM. These abbreviations for these brain areas will be used exclusively when discussing the results generated by these specific dissections. Each dissected area was immediately placed in liquid nitrogen and then stored at -80°C until used for lipid extraction.
Tissue extracts were performed as previously described ([Bradshaw et al., 2006]; [Stuart et al., 2013]; [Raboune et al., 2014]; [Leishman et al., 2016a],[b], [2017], [2018]). First, samples were shock frozen in liquid nitrogen, weighed, and transferred to a centrifuge tube. The mass of the largest sample was multiplied by 50 to determine how many milliliters of HPLC-grade methanol (Fisher, Fair Lawn, NJ, United States) to add. Then, samples were spiked with 500 pmol deuterium-labeled NAGly (d8NAGly; Cayman Chemical, Ann Arbor, MI, United States). Samples were placed on ice in darkness for 2 h then individually homogenized and centrifuged at 19,000 × g for 20 min at 20°C. Supernatants were diluted with HPLC water (purified in house) to make a solution of 75% water, 25% supernatant. Lipids were partially purified on C18 solid phase extraction columns (Agilent, Palo Alto, CA, United States). A series of four elutions with 1.5 mL of 60%, 75%, 85%, and 100% methanol were collected ([Stuart et al., 2013]; [Leishman et al., 2016a],[b], [2018]).
As previously described ([Bradshaw et al., 2006]; [Tan et al., 2006]; [Smoum et al., 2010]; [Stuart et al., 2013]; [Tortoriello et al., 2013]; [Raboune et al., 2014]; [Leishman et al., 2016a],[b], [2017], [2018]), samples were analyzed using an Applied Biosystems API 3000 triple quadrupole mass spectrometer with electrospray ionization (Foster City, CA, United States). Using an Agilent XDB-C18 reversed phase analytical column and optimized mobile phase gradients, 20 μL from each elution were chromatographed. Two Shimadzu 10ADvp pumps (Columbia, MD, United States) provided the pressure for gradient elution. Mobile phase A: 20% methanol, 80% water (v/v) and 1 mM ammonium acetate (Sigma, St. Louis, MO, United States). Mobile phase B: 100% methanol, 1 mM ammonium acetate. Every method run began with 0% mobile phase B, reached 100% mobile phase B flowing at 0.2 mL/min, and gradually returned to 0% mobile phase B.
This screening library will be referred to as the lipidome when discussing data from this study. HPLC/MS/MS data were analyzed using Analyst software (Applied Biosystems) ([Bradshaw et al., 2006]; [Tan et al., 2006]; [Stuart et al., 2013]; [Tortoriello et al., 2013]; [Raboune et al., 2014]; [Leishman et al., 2016a],[b], [2017], [2018]). Chromatograms (Supplementary Figure 3) were generated by determining the retention time of analytes from the analytical column with a [M-1] or [M+1] parent peak and a fragmentation peak corresponding to the programmed values. […]

[1] = brainstem, PND 50, 3 mg/kg CP 55,940, one-way ANOVA p .062
[2] = brainstem, PND35 WT female mice, 3 mg/kg
[3] = cerebellum, PND 50, 3 mg/kg CP 55,940
[4] = cerebellum, PND 50 female mice, 3 mg/kg CP 55,940

CCCCCCC(C)(C)c1ccc([C@@H]2C[C@H](O)CC[C@H]2CCCO)c(O)c1 [CP 55,940]
2-oleoyl glycerol, Magnitude (x Veh level) (brainstem, PND 50, 3 mg/kg CP 55,940, one-way ANOVA p .046): 0.86 x Veh level | 2-palmitoyl glycerol, Direction (relative to Veh) [1]: ↓ | 2-palmitoyl glycerol, Magnitude (x Veh level) [1]: 0.71 x Veh level | N-arachidonoyl GABA level, Mean [2]: 8.01E-12 | N-arachidonoyl alanine level, Mean [2]: 6.76E-12 | N-arachidonoyl ethanolamine level, Mean [2]: 2.09E-11 | N-arachidonoyl glycine level, Mean [2]: 4.63E-11 | N-arachidonoyl methionine level, Mean [2]: 8.72E-13 | N-arachidonoyl phenylalanine level, Mean [2]: 9.69E-13 | N-docosahexaenoyl GABA level, Mean [2]: 2.13E-12 | N-docosahexaenoyl alanine level, Mean [2]: 4.95E-12 | N-docosahexaenoyl ethanolamine level, Mean [2]: 4.42E-11 | N-docosahexaenoyl glycine level, Mean [2]: 2.18E-11 | N-docosahexaenoyl leucine level, Mean [2]: 5.85E-13 | N-docosahexaenoyl phenylalanine level, Mean [2]: 8.51E-13 | N-linoleoyl GABA level, Mean [2]: 8E-13 | N-linoleoyl alanine level, Mean [2]: 1.32E-12 | N-linoleoyl ethanolamine level, Mean [2]: 3.37E-11 | N-linoleoyl glycine level, Mean [2]: 5.99E-12 | N-linoleoyl leucine level, Mean [2]: 3.47E-13 | N-oleoyl GABA level, Mean [2]: 4.65E-12 | N-oleoyl alanine level, Mean [2]: 7.64E-12 | N-oleoyl ethanolamine level, Mean [2]: 2.04E-10 | N-oleoyl glycine level, Mean [2]: 2.66E-11 | N-oleoyl leucine level, Mean [2]: 1.35E-12 | N-oleoyl methionine level, Mean [2]: 1.16E-12 | N-oleoyl phenylalanine level, Mean [2]: 1.05E-12 | N-palmitoyl GABA level, Mean [2]: 7.63E-12 | N-palmitoyl alanine level, Mean [2]: 8.91E-12 | N-palmitoyl ethanolamine level, Mean [2]: 1.31E-10 | N-palmitoyl glycine level, Mean [2]: 4.17E-11 | N-palmitoyl leucine level, Mean [2]: 2.63E-12 | N-palmitoyl methionine level, Mean [2]: 1.43E-12 | N-palmitoyl phenylalanine level, Mean [2]: 2.02E-12 | N-stearoyl GABA level, Mean [2]: 6.98E-12 | N-stearoyl alanine level, Mean [2]: 1.31E-11 | N-stearoyl ethanolamine level, Mean [2]: 3.25E-11 | N-stearoyl glycine level, Mean [2]: 2.18E-11 | N-stearoyl leucine level, Mean [2]: 8.28E-13 | N-stearoyl methionine level, Mean [2]: 1.7E-12 | N-stearoyl phenylalanine level, Mean [2]: 1.48E-12 | 2-linoleoyl glycerol: Direction (relative to Veh) [3]: ↓ | 2-linoleoyl glycerol: Magnitude (x Veh level) [3]: 0.65 x Veh level | 2-oleoyl glycerol: Direction (relative to Veh) [3]: ↓ | 2-oleoyl glycerol: Magnitude (x Veh level) [3]: 0.77 x Veh level | 2-palmitoyl glycerol: Direction (relative to Veh) [3]: ↓ | 2-palmitoyl glycerol: Magnitude (x Veh level) [3]: 0.69 x Veh level | 6-ketoPGF1α: Direction (relative to Veh) [3]: ↑ | 6-ketoPGF1α: Magnitude (x Veh level) [3]: 1.33 x Veh level | Arachidonic acid: Direction (relative to Veh) [3]: ↓ | Arachidonic acid: Magnitude (x Veh level) [3]: 0.74 x Veh level | Linoleic acid: Direction (relative to Veh) [3]: ↓ | Linoleic acid: Magnitude (x Veh level) [3]: 0.73 x Veh level | N-arachidonoyl GABA: Direction (relative to Veh) [3]: ↓ | N-arachidonoyl GABA: Magnitude (x Veh level) [3]: 0.75 x Veh level | N-arachidonoyl ethanolamine: Direction (relative to Veh) [3]: ↓ | N-arachidonoyl ethanolamine: Magnitude (x Veh level) [3]: 0.81 x Veh level | N-arachidonoyl glycine: Direction (relative to Veh) [3]: ↓ | N-arachidonoyl glycine: Magnitude (x Veh level) [3]: 0.68 x Veh level | N-arachidonoyl phenylalanine: Direction (relative to Veh) [3]: ↓ | N-arachidonoyl phenylalanine: Magnitude (x Veh level) [3]: 0.60 x Veh level | N-arachidonoyl serine: Direction (relative to Veh) [3]: ↓ | N-arachidonoyl serine: Magnitude (x Veh level) [3]: 0.78 x Veh level | N-arachidonoyl taurine: Direction (relative to Veh) [3]: ↓ | N-arachidonoyl taurine: Magnitude (x Veh level) [3]: 0.83 x Veh level | N-arachidonoyl tyrosine: Direction (relative to Veh) [3]: ↓ | N-arachidonoyl tyrosine: Magnitude (x Veh level) [3]: 0.73 x Veh level | N-docosahexaenoyl phenylalanine: Direction (relative to Veh) [3]: ↓ | N-docosahexaenoyl phenylalanine: Magnitude (x Veh level) [3]: 0.77 x Veh level | N-linoleoyl ethanolamine: Direction (relative to Veh) [3]: ↓ | N-linoleoyl ethanolamine: Magnitude (x Veh level) [3]: 0.77 x Veh level | N-oleoyl GABA: Direction (relative to Veh) [3]: ↓ | N-oleoyl GABA: Magnitude (x Veh level) [3]: 0.76 x Veh level | N-oleoyl ethanolamine: Direction (relative to Veh) [3]: ↓ | N-oleoyl ethanolamine: Magnitude (x Veh level) [3]: 0.85 x Veh level | N-oleoyl phenylalanine: Direction (relative to Veh) [3]: ↑ | N-oleoyl phenylalanine: Magnitude (x Veh level) [3]: 1.26 x Veh level | N-palmitoyl leucine: Direction (relative to Veh) [3]: ↑ | N-palmitoyl leucine: Magnitude (x Veh level) [3]: 1.63 x Veh level | N-palmitoyl valine: Direction (relative to Veh) [3]: ↑ | N-palmitoyl valine: Magnitude (x Veh level) [3]: 1.49 x Veh level | Oleic acid: Direction (relative to Veh) [3]: ↓ | Oleic acid: Magnitude (x Veh level) [3]: 0.83 x Veh level | PGE2: Direction (relative to Veh) [3]: ↓ | PGE2: Magnitude (x Veh level) [3]: 0.68 x Veh level | PGF2α: Direction (relative to Veh) [3]: ↓ | PGF2α: Magnitude (x Veh level) [3]: 0.72 x Veh level | 2-arachidonoyl glycerol level, Mean [4]: 1.99E-10 | 2-linoleoyl glycerol level, Mean [4]: 1.45E-10 | 2-oleoyl glycerol level, Mean [4]: 1.49E-09 | 2-palmitoyl glycerol level, Mean [4]: 1.57E-09 | 6-ketoPGF1α level, Mean [4]: 6.52E-12 | 11-OH-THC level, Mean [4]: BDL | 11-nor-9-carboxyTHC level, Mean [4]: BDL | Arachidonic acid level, Mean [4]: 1.8E-10 | Cannabidiol level, Mean [4]: BDL | Linoleic acid level, Mean [4]: 1.87E-10 | N- stearoyl valine level, Mean [4]: 9.25E-14 | N-arachidonoyl GABA level, Mean [4]: 3.92E-12 | N-arachidonoyl dopamine level, Mean [4]: BDL | N-arachidonoyl ethanolamine level, Mean [4]: 2.25E-11 | N-arachidonoyl glycine level, Mean [4]: 1.1E-12
